From US7759101B2, “Ginsenoside glycosidases hydrolyzing ginsenoside sugar moieties and uses thereof” (priority 2000, dated 2010)

Key:
[1] = test system: bacterial ginsenoside glycosidases; assay: Hydrolysis of Rd with ginsenoside glycosidases from bacteria; type: biochemical, Bacillus sp. JF; details: 0.5% Rd in acetate buffer containing 20% ethanol, 70° C., 16 hours
Method: Thermophilic and aerobic Bacillus sp. JF (Fengxie Jin et al., J. Gen. Appl. Microbiol., 36, 415-434, 1990) was cultured with aeration and stirring in a medium containing 0.5% by weight of ginseng extracts, 1% by weight of wheat bran extracts and 0.3% tryptone with a pH of 7.2 at 60° C. for 36 hours. Cells were removed by centrifugation and 3000 ml of 95% ethanol was added to 1000 ml of the cell-free supernatant. The solution was allowed to stand at 4° C. overnight and then centrifuged to collect the pellets. The enzyme protein pellets were dissolved in 50 ml of 0.01M acetate buffer pH 5. Insoluble materials were removed by centrifugation and a crude enzyme solution was obtained.
10 ml of the enzyme solution was allowed to react with 10 ml of 0.5% Rd in acetate buffer containing 20% ethanol at 70° C. for 16 hours. […] The enzymes can also hydrolyze β-(1→2)-glucoside of Rg3 to give Rh2.

[2] = test system: Ginsenoside Glycosidases from Yeast; assay: Hydrolysis of Rd with ginsenoside glycosidases from yeast; type: biochemical, Candida sp. FFCCDL-2 g; details: 0.5% Rd in acetate buffer, 60° C., 12 hours
Method: Candida sp. FFCCDL-2 g (available from Food Fermentation Culture Collection of Dalian Institute of Light Industry) was cultured with shaking at 30° C. for 56 hours in a medium containing 2% by weight of ginseng extracts and 8% by weight of malt extracts. Cells were removed by centrifugation, after which (NH4)2SO4 powder was added to 500 ml of the cell-free supernatant to 65% saturation. The solution was dialyzed against 0.01M acetate buffer pH 5. Insolubles were removed by centrifugation, and 25 ml of crude enzyme solution was obtained.
10 ml of the enzyme solution was allowed to react with 10 ml of 0.5% Rd in acetate buffer at 60° C. for 12 hours. […] The enzymes can also hydrolyze β-(1→2)-glucoside of Rg3 to give Rh2.

[3] = test system: ginsenoside glycosidase III from ginseng plant; assay: Hydrolysis of Rd with fraction 37 (ginsenoside glycosidase III) from ginseng plant; type: biochemical; details: Fraction 37; substrate 0.5%; 50° C., pH 5.0, 18 hours
Method: 200 g of fresh ginseng root was cut into pieces and added to 600 ml of 0.02 M acetate buffer pH 5. Supernatant was obtained by filtration after the mixture stand at 40° C. for 2 hours. To the supernatant (NH4)2SO4 was added gradually until 70% saturation and the mixture stand overnight at 4° C. Then protein pellets were collected by centrifugation and redissolved in 15 ml of distilled water. The solution was dialyzed against 0.02 M Tris-HCl pH 7.4. Insolubles were removed by centrifugation and the volume of the supernatant was adjusted to 20 ml.
5 ml of the enzyme solution was subjected to a DEAE-Cellulose DE-25 column (Whatman, 1.4×6.7 cm). The column was eluted with a KCl gradient (0.06, 0.12, 0.18 and 0.24 M) in 0.02 M Tris-HCl pH 7.4. After elution, each fraction was tested for the activity of hydrolyzing ginsenosides. […] Fraction 52 can also hydrolyze the glucosidic bond at the twentieth carbon atom of Rb and Rc to give ginsenoside F2.

[4] = test system: ginsenoside glycosidase III; assay: Hydrolysis of ginsenoside Rd with ginsenoside glycosidase III (Fraction 18); type: biochemical, Aspergillus niger; details: substrate 0.5%, pH 5.0, 30° C., 18 hours
Method: Ginsenoside glycosidase II was purified from the crude enzyme solution obtained in 1.1 by HPLC. Separation column: Bio-Scale Q (BioRad), 2 ml/tube. 1 ml of the crude enzyme solution was loaded on the column, and eluted with solvent A (25 mM Tris-HCl buffer pH 7.4) and solvent B (0.5M NaCl in 20 mM Tris-HCl buffer pH 7.4). Fraction 18 appeared as a single dot when running on a SDS-polyacrylamide gel and thus represented a purified enzyme. The enzyme was designated as ginsenoside glycosidase III. This enzyme can hydrolyze the diglucosyl groups at C-3 of aglycone, converting Rd and Rg3 to C-K and aglycone.
To observe the differences between the ginsenoside glycosidases of the invention and known exo-cellulases, the ginsenoside glycosidases of the invention were compared with cellulose β-glucosidase (E.C. 3.2.1.21) in two reactions with 0.5% ginsenosides Rb1 or Rd as substrate.

[5] = test system: ginsenoside glycosidases from Tremella; assay: Hydrolysis of Rb1 with ginsenoside glycosidases from Tremella; type: biochemical, Tremella sp. FFCCDL-12 g; details: 1% Rb1 in acetate buffer containing 20% ethanol, 40° C., 20 hours
Method: Tremella sp. FFCCDL-12 g (available from Food Fermentation Culture Collection of Dalian Institute of Light Industry) was cultured on a solid medium containing 125 g of ginseng powder, 374 g of wheat bran and 500 ml of water for 5 to 7 days. Then 2500 ml of 0.01 M acetate buffer pH 5.0 was added to the solid medium to stand for 2 hours. Insolubles were removed by centrifugation and approximately 2000 ml liquid was obtained. (NH4)2SO4 powder was added to the liquid with stirring to 70% saturation. The solution was stored at 4° C. overnight and centrifuged to collect the pellets. The pellets were resuspended and the suspension was dialyzed against 0.01M acetate buffer pH 5. Then the solution was diluted in 0.01 M acetate buffer to a volume of 150 ml. Impurities were removed by centrifugation, and crude enzyme solution was obtained.
10 ml of the enzyme solution was allowed to react with 10 ml of 1% Rb1 in acetate buffer containing 20% ethanol at 40° C. for 20 hours. […] The optimal reaction temperature for the enzymes is 50° C. and the optimal pH is pH 5.5.

Enzymes from Malts = assay: Hydrolysis of Rb1 with enzymes from malts; type: biochemical, malt; details: 1% Rb1 solution, pH 5, 20% ethanol, 40° C., 20 hours
Method: 200 g of malt was ground and added to 1000 ml of 0.01 M acetate buffer pH 5 for extraction under room temperature for two hours. The mixture was filtrated. To the supernatant 3 volumes of ethanol was added and stand overnight. Precipitates were collected to which 50 ml of 0.01 M acetate buffer pH 5 was added. Insolubles were removed and enzyme solution was obtained. 10 ml of the enzyme solution was allowed to react with 10 ml of 1% Rb1 solution (in 0.01 M acetate buffer pH 5 containing 20% ethanol) at 40° C. for 20 hours. The product was detected by TLC. As a result, more than 95% Rb1 was converted to Rd, F2, C-K and Rg3 and the like.

Compound: CC(C)=CCC[C@](C)(O[C@@H]1O[C@H](CO)[C@@H](O)[C@H](O)[C@H]1O)[C@H]1CC[C@]2(C)[C@@H]1[C@H](O)C[C@@H]1[C@@]3(C)CC[C@H](O[C@@H]4O[C@H](CO)[C@@H](O)[C@H](O)[C@H]4O[C@@H]4O[C@H](CO)[C@@H](O)[C@H](O)[C@H]4O)C(C)(C)[C@@H]3CC[C@]12C [Rd, ginsenoside Rd]
- Rd converted to ginsenoside F2 [1]: 60%
- Rd converted to ginsenoside F2 [2]: 73%
- Percentage of C—K in the reaction product [3]: 55%
- Percentage of Rd in the reaction product [3]: 45%
- Percentage of C—K in the reaction product [4]: 36%
- Percentage of Rd in the reaction product [4]: 61%
- Percentage of aglycone in the reaction product [4]: 3%

Compound: CC(C)=CCC[C@](C)(O[C@@H]1O[C@H](CO[C@@H]2O[C@H](CO)[C@@H](O)[C@H](O)[C@H]2O)[C@@H](O)[C@H](O)[C@H]1O)[C@H]1CC[C@]2(C)[C@@H]1[C@H](O)C[C@@H]1[C@@]3(C)CC[C@H](O[C@@H]4O[C@H](CO)[C@@H](O)[C@H](O)[C@H]4O[C@@H]4O[C@H](CO)[C@@H](O)[C@H](O)[C@H]4O)C(C)(C)[C@@H]3CC[C@]12C [Rb1, ginsenoside Rb1]
- C-K in the product mixture [5]: 35%
- F2 in the product mixture [5]: 40%
- Rd in the product mixture [5]: 25%
- Rb1 converted to Rd, F2, C-K and Rg3 and the like (Enzymes from Malts): more than 95%
